Tested on: A-375
Experiment: Cytotoxicity against human A375 cells after 48 hrs by sulforhodamine B assay
Type: functional, cell-based
Settings: Homo sapiens, A-375, 48 h

| Structure (SMILES) | IC50 [µM] |
| --- | --- |
| Cc1ccc(C(=O)c2c[nH]c(-c3ccccc3)n2)cc1 | > 10 |
| Cc1cccc(C(=O)c2c[nH]c(-c3ccccc3)n2)c1 | > 10 |
| O=S(=O)(c1ccccc1)n1ccnc1-c1ccccc1 | > 10 |
| O=C(c1cccc(F)c1)c1c[nH]c(-c2ccccc2)n1 | > 10 |
| O=C(c1cc(O)c(O)c(O)c1)c1c[nH]c(-c2cc(O)c(O)c(O)c2)n1 | > 10 |
| COc1cc(C(=O)c2c[nH]c(-c3ccc(OCc4ccccc4)cc3)n2)cc(OC)c1OC | 5.2 |
| O=C(c1ccc(F)cc1)c1c[nH]c(-c2ccc(OCc3ccccc3)cc2)n1 | 0.093 |
| O=C(c1cc(O)c(O)c(O)c1)c1c[nH]c(-c2ccc(O)c(O)c2)n1 | > 10 |
| COc1ccc(C(=O)c2cnc(-c3ccccc3)n2S(=O)(=O)c2ccccc2)cc1 | > 10 |
| COc1cccc(C(=O)c2cnc(-c3ccccc3)n2S(=O)(=O)c2ccccc2)c1 | > 10 |
| Cc1ccc(C(=O)c2cnc(-c3ccccc3)n2S(=O)(=O)c2ccccc2)cc1 | > 10 |
| COc1cc(C(=O)c2c[nH]c(-c3ccccc3)n2)cc(OC)c1OC | 0.16 |
| COc1ccc(C(=O)c2c[nH]c(-c3ccccc3)n2)cc1 | > 10 |
| COc1cccc(C(=O)c2c[nH]c(-c3ccccc3)n2)c1 | > 10 |

Tested on: DU-145
Experiment: cells
Settings: Homo sapiens, DU-145, 48 h
Description: Cytotoxicity against human DU145 cells after 48 hrs by sulforhodamine B assay

| Structure (SMILES) | IC50 [µM] |
| --- | --- |
| Cc1ccc(C(=O)c2c[nH]c(-c3ccccc3)n2)cc1 | > 10 |
| Cc1cccc(C(=O)c2c[nH]c(-c3ccccc3)n2)c1 | > 10 |
| O=S(=O)(c1ccccc1)n1ccnc1-c1ccccc1 | > 10 |
| O=C(c1cccc(F)c1)c1c[nH]c(-c2ccccc2)n1 | > 10 |
| O=C(c1cc(O)c(O)c(O)c1)c1c[nH]c(-c2cc(O)c(O)c(O)c2)n1 | > 10 |
| COc1cc(C(=O)c2c[nH]c(-c3ccc(OCc4ccccc4)cc3)n2)cc(OC)c1OC | 10 |
| O=C(c1ccc(F)cc1)c1c[nH]c(-c2ccc(OCc3ccccc3)cc2)n1 | 0.06 |
| O=C(c1cc(O)c(O)c(O)c1)c1c[nH]c(-c2ccc(O)c(O)c2)n1 | > 10 |
| COc1ccc(C(=O)c2cnc(-c3ccccc3)n2S(=O)(=O)c2ccccc2)cc1 | > 10 |
| COc1cccc(C(=O)c2cnc(-c3ccccc3)n2S(=O)(=O)c2ccccc2)c1 | > 10 |
| Cc1ccc(C(=O)c2cnc(-c3ccccc3)n2S(=O)(=O)c2ccccc2)cc1 | > 10 |
| COc1cc(C(=O)c2c[nH]c(-c3ccccc3)n2)cc(OC)c1OC | 0.2 |
| COc1ccc(C(=O)c2c[nH]c(-c3ccccc3)n2)cc1 | > 10 |
| COc1cccc(C(=O)c2c[nH]c(-c3ccccc3)n2)c1 | > 10 |

Tested on: PC-3
Experiment: cells
Settings: Homo sapiens, PC-3, 48 h
Description: Cytotoxicity against human PC3 cells after 48 hrs by sulforhodamine B assay

| Structure (SMILES) | IC50 [µM] |
| --- | --- |
| Cc1ccc(C(=O)c2c[nH]c(-c3ccccc3)n2)cc1 | > 10 |
| Cc1cccc(C(=O)c2c[nH]c(-c3ccccc3)n2)c1 | > 10 |
| O=S(=O)(c1ccccc1)n1ccnc1-c1ccccc1 | > 10 |
| O=C(c1cccc(F)c1)c1c[nH]c(-c2ccccc2)n1 | > 10 |
| O=C(c1cc(O)c(O)c(O)c1)c1c[nH]c(-c2cc(O)c(O)c(O)c2)n1 | > 10 |
| COc1cc(C(=O)c2c[nH]c(-c3ccc(OCc4ccccc4)cc3)n2)cc(OC)c1OC | 10 |
| O=C(c1ccc(F)cc1)c1c[nH]c(-c2ccc(OCc3ccccc3)cc2)n1 | 0.079 |
| O=C(c1cc(O)c(O)c(O)c1)c1c[nH]c(-c2ccc(O)c(O)c2)n1 | > 10 |
| COc1ccc(C(=O)c2cnc(-c3ccccc3)n2S(=O)(=O)c2ccccc2)cc1 | > 10 |
| COc1cccc(C(=O)c2cnc(-c3ccccc3)n2S(=O)(=O)c2ccccc2)c1 | > 10 |
| Cc1ccc(C(=O)c2cnc(-c3ccccc3)n2S(=O)(=O)c2ccccc2)cc1 | > 10 |
| COc1cc(C(=O)c2c[nH]c(-c3ccccc3)n2)cc(OC)c1OC | 0.29 |
| COc1ccc(C(=O)c2c[nH]c(-c3ccccc3)n2)cc1 | > 10 |
| COc1cccc(C(=O)c2c[nH]c(-c3ccccc3)n2)c1 | > 10 |

Tested on: LNCaP
Experiment: Cytotoxicity against human LNCAP cells after 48 hrs by sulforhodamine B assay
Type: functional, cell-based
Settings: not given

| Structure (SMILES) | IC50 [µM] |
| --- | --- |
| Cc1ccc(C(=O)c2c[nH]c(-c3ccccc3)n2)cc1 | > 10 |
| Cc1cccc(C(=O)c2c[nH]c(-c3ccccc3)n2)c1 | > 10 |
| O=S(=O)(c1ccccc1)n1ccnc1-c1ccccc1 | > 10 |
| O=C(c1cccc(F)c1)c1c[nH]c(-c2ccccc2)n1 | > 10 |
| O=C(c1cc(O)c(O)c(O)c1)c1c[nH]c(-c2cc(O)c(O)c(O)c2)n1 | > 10 |
| COc1cc(C(=O)c2c[nH]c(-c3ccc(OCc4ccccc4)cc3)n2)cc(OC)c1OC | 2.79 |
| O=C(c1ccc(F)cc1)c1c[nH]c(-c2ccc(OCc3ccccc3)cc2)n1 | 0.044 |
| O=C(c1cc(O)c(O)c(O)c1)c1c[nH]c(-c2ccc(O)c(O)c2)n1 | > 10 |
| COc1ccc(C(=O)c2cnc(-c3ccccc3)n2S(=O)(=O)c2ccccc2)cc1 | > 10 |
| COc1cccc(C(=O)c2cnc(-c3ccccc3)n2S(=O)(=O)c2ccccc2)c1 | > 10 |
| Cc1ccc(C(=O)c2cnc(-c3ccccc3)n2S(=O)(=O)c2ccccc2)cc1 | > 10 |
| COc1cc(C(=O)c2c[nH]c(-c3ccccc3)n2)cc(OC)c1OC | 0.15 |
| COc1ccc(C(=O)c2c[nH]c(-c3ccccc3)n2)cc1 | > 10 |
| COc1cccc(C(=O)c2c[nH]c(-c3ccccc3)n2)c1 | > 10 |

Tested on: not listed separately
Experiment: Cytotoxicity against human WM164 cells after 48 hrs by sulforhodamine B assay
Type: functional, cell-based
Settings: Homo sapiens, WM164, 48 h

| Structure (SMILES) | IC50 [µM] |
| --- | --- |
| Cc1ccc(C(=O)c2c[nH]c(-c3ccccc3)n2)cc1 | > 10 |
| Cc1cccc(C(=O)c2c[nH]c(-c3ccccc3)n2)c1 | > 10 |
| O=S(=O)(c1ccccc1)n1ccnc1-c1ccccc1 | > 10 |
| O=C(c1cccc(F)c1)c1c[nH]c(-c2ccccc2)n1 | > 10 |
| O=C(c1cc(O)c(O)c(O)c1)c1c[nH]c(-c2cc(O)c(O)c(O)c2)n1 | > 10 |
| COc1cc(C(=O)c2c[nH]c(-c3ccc(OCc4ccccc4)cc3)n2)cc(OC)c1OC | 5.5 |
| O=C(c1ccc(F)cc1)c1c[nH]c(-c2ccc(OCc3ccccc3)cc2)n1 | 0.09 |
| O=C(c1cc(O)c(O)c(O)c1)c1c[nH]c(-c2ccc(O)c(O)c2)n1 | > 10 |
| COc1ccc(C(=O)c2cnc(-c3ccccc3)n2S(=O)(=O)c2ccccc2)cc1 | > 10 |
| COc1cccc(C(=O)c2cnc(-c3ccccc3)n2S(=O)(=O)c2ccccc2)c1 | > 10 |
| Cc1ccc(C(=O)c2cnc(-c3ccccc3)n2S(=O)(=O)c2ccccc2)cc1 | > 10 |
| COc1cc(C(=O)c2c[nH]c(-c3ccccc3)n2)cc(OC)c1OC | 0.1 |
| COc1ccc(C(=O)c2c[nH]c(-c3ccccc3)n2)cc1 | > 10 |
| COc1cccc(C(=O)c2c[nH]c(-c3ccccc3)n2)c1 | > 10 |

Tested on: not listed separately
Experiment: Cytotoxicity against mouse B16-F1 cells after 48 hrs by sulforhodamine B assay
Type: functional, cell-based
Settings: Mus musculus, B16-F1, 48 h

| Structure (SMILES) | IC50 [µM] |
| --- | --- |
| Cc1ccc(C(=O)c2c[nH]c(-c3ccccc3)n2)cc1 | > 10 |
| Cc1cccc(C(=O)c2c[nH]c(-c3ccccc3)n2)c1 | > 10 |
| O=S(=O)(c1ccccc1)n1ccnc1-c1ccccc1 | > 10 |
| O=C(c1cccc(F)c1)c1c[nH]c(-c2ccccc2)n1 | > 10 |
| O=C(c1cc(O)c(O)c(O)c1)c1c[nH]c(-c2cc(O)c(O)c(O)c2)n1 | > 10 |
| O=C(c1ccc(F)cc1)c1c[nH]c(-c2ccc(OCc3ccccc3)cc2)n1 | 0.117 |
| O=C(c1cc(O)c(O)c(O)c1)c1c[nH]c(-c2ccc(O)c(O)c2)n1 | > 10 |
| COc1ccc(C(=O)c2cnc(-c3ccccc3)n2S(=O)(=O)c2ccccc2)cc1 | > 10 |
| COc1cccc(C(=O)c2cnc(-c3ccccc3)n2S(=O)(=O)c2ccccc2)c1 | > 10 |
| Cc1ccc(C(=O)c2cnc(-c3ccccc3)n2S(=O)(=O)c2ccccc2)cc1 | > 10 |
| COc1cc(C(=O)c2c[nH]c(-c3ccccc3)n2)cc(OC)c1OC | 0.12 |
| COc1ccc(C(=O)c2c[nH]c(-c3ccccc3)n2)cc1 | > 10 |
| COc1cccc(C(=O)c2c[nH]c(-c3ccccc3)n2)c1 | > 10 |

Tested on: PPC-1
Experiment: Cytotoxicity against human PPC1 cells after 48 hrs by sulforhodamine B assay
Type: functional, cell-based
Settings: Homo sapiens, PPC-1, 48 h

| Structure (SMILES) | IC50 [µM] |
| --- | --- |
| Cc1ccc(C(=O)c2c[nH]c(-c3ccccc3)n2)cc1 | > 10 |
| Cc1cccc(C(=O)c2c[nH]c(-c3ccccc3)n2)c1 | > 10 |
| O=S(=O)(c1ccccc1)n1ccnc1-c1ccccc1 | > 10 |
| O=C(c1cccc(F)c1)c1c[nH]c(-c2ccccc2)n1 | > 10 |
| O=C(c1cc(O)c(O)c(O)c1)c1c[nH]c(-c2cc(O)c(O)c(O)c2)n1 | > 10 |
| COc1cc(C(=O)c2c[nH]c(-c3ccc(OCc4ccccc4)cc3)n2)cc(OC)c1OC | 2.84 |
| O=C(c1ccc(F)cc1)c1c[nH]c(-c2ccc(OCc3ccccc3)cc2)n1 | 0.043 |
| O=C(c1cc(O)c(O)c(O)c1)c1c[nH]c(-c2ccc(O)c(O)c2)n1 | > 10 |
| COc1ccc(C(=O)c2cnc(-c3ccccc3)n2S(=O)(=O)c2ccccc2)cc1 | > 10 |
| COc1cccc(C(=O)c2cnc(-c3ccccc3)n2S(=O)(=O)c2ccccc2)c1 | > 10 |
| Cc1ccc(C(=O)c2cnc(-c3ccccc3)n2S(=O)(=O)c2ccccc2)cc1 | > 10 |
| COc1cc(C(=O)c2c[nH]c(-c3ccccc3)n2)cc(OC)c1OC | 0.13 |
| COc1ccc(C(=O)c2c[nH]c(-c3ccccc3)n2)cc1 | > 10 |
| COc1cccc(C(=O)c2c[nH]c(-c3ccccc3)n2)c1 | > 10 |
